Reference: patent publication US20100249419A1, “UTILIZATION OF NOVEL COMPOUNDS WITH AMYLOID AFFINITY AND METHOD OF PRODUCING THE SAME” (NIHON MEDI-PHYSICS CO., LTD., priority 2007, published 2010)

Assay: Radioactive distribution ratio in each organ
Format: in vivo, SD rat
Method: In order to confirm that a compound of the present invention can be distributed in a target organ and has good clearance to the outside of the body, Compound 1 was used to measure a time-course change of radioactive accumulation to each organ in SD rat (8 weeks).
A solution of Compound 1 prepared in Example 3 in diethylether was diluted with a 10 mg/mL ascorbic acid-containing physiological saline solution (Example 10) and adjusted to 8-12 MBq/mL in radioactive concentration. 0.05 mL each of the prepared sample solution was administered under thiopental anesthesia into the tail vein of the above rat. The rats were sacrificed by bleeding from abdominal artery, and each organ shown in Table 11 was removed 5, 30, 60 and 180 minutes after the administration. Each removed organ was subjected to measurement of mass and radioactivity with the same method as in Example 10. Also, radioactivity of the whole body of the rat after removal of the organs (hereinafter referred to as rest of the whole body) was measured. Using these measurement results, radioactive distribution per unit weight of each organ (% ID/g) at the respective time points was calculated in accordance with the following formula (7).
Three animals were used for the experiment at the respective time points.
[formula] • R^T: Radioactivity of target organ (cpm) • R^S: Sum of radioactivity of all the organs (cpm) • R^R: Radioactivity of the rest of the whole body (cpm) • M^T: Mass of target organ (g)

Substance: 2-[4′-(2″-hydroxyethoxy)phenyl]-6-[^123I]iodoimidazo[1,2-a]pyridine [Compound 1]
- Radioactive distribution per unit weight of organ, Average (Adrenal gland, 5 min. after administration): 2.471 % ID/g
- Radioactive distribution per unit weight of organ, Average (Adrenal gland, 30 min. after administration): 0.199 % ID/g
- Radioactive distribution per unit weight of organ, Average (Adrenal gland, 60 min. after administration): 0.068 % ID/g
- Radioactive distribution per unit weight of organ, Average (Adrenal gland, 180 min. after administration): 0.052 % ID/g
- Radioactive distribution per unit weight of organ, Average (Blood, 5 min. after administration): 0.420 % ID/g
- Radioactive distribution per unit weight of organ, Average (Blood, 30 min. after administration): 0.129 % ID/g
- Radioactive distribution per unit weight of organ, Average (Blood, 60 min. after administration): 0.101 % ID/g
- Radioactive distribution per unit weight of organ, Average (Blood, 180 min. after administration): 0.068 % ID/g
- Radioactive distribution per unit weight of organ, Average (Bone, 5 min. after administration): 0.282 % ID/g
- Radioactive distribution per unit weight of organ, Average (Bone, 30 min. after administration): 0.066 % ID/g
- Radioactive distribution per unit weight of organ, Average (Bone, 60 min. after administration): 0.047 % ID/g
- Radioactive distribution per unit weight of organ, Average (Bone, 180 min. after administration): 0.032 % ID/g
- Radioactive distribution per unit weight of organ, Average (Brain, 5 min. after administration): 0.755 % ID/g
- Radioactive distribution per unit weight of organ, Average (Brain, 30 min. after administration): 0.049 % ID/g
- Radioactive distribution per unit weight of organ, Average (Brain, 60 min. after administration): 0.014 % ID/g
- Radioactive distribution per unit weight of organ, Average (Brain, 180 min. after administration): 0.005 % ID/g
- Radioactive distribution per unit weight of organ, Average (Heart, 5 min. after administration): 0.582 % ID/g
- Radioactive distribution per unit weight of organ, Average (Heart, 30 min. after administration): 0.081 % ID/g
- Radioactive distribution per unit weight of organ, Average (Heart, 60 min. after administration): 0.049 % ID/g
- Radioactive distribution per unit weight of organ, Average (Heart, 180 min. after administration): 0.029 % ID/g
- Radioactive distribution per unit weight of organ, Average (Kidney, 5 min. after administration): 1.212 % ID/g
- Radioactive distribution per unit weight of organ, Average (Kidney, 30 min. after administration): 0.432 % ID/g
- Radioactive distribution per unit weight of organ, Average (Kidney, 60 min. after administration): 0.236 % ID/g
- Radioactive distribution per unit weight of organ, Average (Kidney, 180 min. after administration): 0.070 % ID/g
- Radioactive distribution per unit weight of organ, Average (Large intestine, 5 min. after administration): 0.139 % ID/g
- Radioactive distribution per unit weight of organ, Average (Large intestine, 30 min. after administration): 0.054 % ID/g
- Radioactive distribution per unit weight of organ, Average (Large intestine, 60 min. after administration): 0.069 % ID/g
- Radioactive distribution per unit weight of organ, Average (Large intestine, 180 min. after administration): 6.876 % ID/g
- Radioactive distribution per unit weight of organ, Average (Liver, 5 min. after administration): 1.865 % ID/g
- Radioactive distribution per unit weight of organ, Average (Liver, 30 min. after administration): 0.293 % ID/g
- Radioactive distribution per unit weight of organ, Average (Liver, 60 min. after administration): 0.113 % ID/g
- Radioactive distribution per unit weight of organ, Average (Liver, 180 min. after administration): 0.051 % ID/g
- Radioactive distribution per unit weight of organ, Average (Lung, 5 min. after administration): 0.661 % ID/g
- Radioactive distribution per unit weight of organ, Average (Lung, 30 min. after administration): 0.117 % ID/g
- Radioactive distribution per unit weight of organ, Average (Lung, 60 min. after administration): 0.076 % ID/g
- Radioactive distribution per unit weight of organ, Average (Lung, 180 min. after administration): 0.053 % ID/g
- Radioactive distribution per unit weight of organ, Average (Marrow, 5 min. after administration): 0.921 % ID/g
- Radioactive distribution per unit weight of organ, Average (Marrow, 30 min. after administration): 0.087 % ID/g
- Radioactive distribution per unit weight of organ, Average (Marrow, 60 min. after administration): 0.015 % ID/g
- Radioactive distribution per unit weight of organ, Average (Marrow, 180 min. after administration): 0.000 % ID/g
- Radioactive distribution per unit weight of organ, Average (Muscle, 5 min. after administration): 0.372 % ID/g
- Radioactive distribution per unit weight of organ, Average (Muscle, 30 min. after administration): 0.042 % ID/g
- Radioactive distribution per unit weight of organ, Average (Muscle, 60 min. after administration): 0.025 % ID/g
- Radioactive distribution per unit weight of organ, Average (Muscle, 180 min. after administration): 0.015 % ID/g
- Radioactive distribution per unit weight of organ, Average (Pancreas, 5 min. after administration): 0.778 % ID/g
- Radioactive distribution per unit weight of organ, Average (Pancreas, 30 min. after administration): 0.097 % ID/g
- Radioactive distribution per unit weight of organ, Average (Pancreas, 60 min. after administration): 0.051 % ID/g
- Radioactive distribution per unit weight of organ, Average (Pancreas, 180 min. after administration): 0.033 % ID/g
- Excretion / clearance to the outside of the body (SD rat, tail vein administration): biliary-excreted rapidly
- Radioactive distribution per unit weight of organ, Average (Small intestine, 5 min. after administration): 1.299 % ID/g
- Radioactive distribution per unit weight of organ, Average (Small intestine, 30 min. after administration): 6.720 % ID/g
- Radioactive distribution per unit weight of organ, Average (Small intestine, 60 min. after administration): 7.515 % ID/g
- Radioactive distribution per unit weight of organ, Average (Small intestine, 180 min. after administration): 0.882 % ID/g
- Radioactive distribution per unit weight of organ, Average (Spleen, 5 min. after administration): 0.508 % ID/g
- Radioactive distribution per unit weight of organ, Average (Spleen, 30 min. after administration): 0.072 % ID/g
- Radioactive distribution per unit weight of organ, Average (Spleen, 60 min. after administration): 0.044 % ID/g
- Radioactive distribution per unit weight of organ, Average (Spleen, 180 min. after administration): 0.035 % ID/g
- Radioactive distribution per unit weight of organ, Average (Stomach, 5 min. after administration): 0.492 % ID/g
- Radioactive distribution per unit weight of organ, Average (Stomach, 30 min. after administration): 1.202 % ID/g
- Radioactive distribution per unit weight of organ, Average (Stomach, 60 min. after administration): 0.808 % ID/g
- Radioactive distribution per unit weight of organ, Average (Stomach, 180 min. after administration): 0.982 % ID/g
- Ratio (% ID/g at 5 minutes after the administration)/(% ID/g at 180 minutes after the administration) (bones): 9
- Ratio (% ID/g at 5 minutes after the administration)/(% ID/g at 180 minutes after the administration) (brain): 145
- Ratio (% ID/g at 5 minutes after the administration)/(% ID/g at 180 minutes after the administration) (heart): 20
- Ratio (% ID/g at 5 minutes after the administration)/(% ID/g at 180 minutes after the administration) (lung): 13
- Ratio (% ID/g at 5 minutes after the administration)/(% ID/g at 180 minutes after the administration) (pancreas): 24
